Data: ChEMBL document CHEMBL1201862, “PubChem BioAssay data set” (2004)
Activity calls are given as the source filed them.

Tests used:
[1] = viability of PTEN-deleted HCT116 cells – cell-based, HCT116 PTEN knockout, dose response (AID 1047); type: functional;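 note: HCT116 colon tumor cells with PTEN knocked out; cells exposed to compound for 60 hours before readout; potency for loss of cell viability measured by luminescence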
[2] = viability of HCT116 lacking mutant beta-catenin – cell-based, human colon tumor, dose response (AID 1045); type: functional;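 note: HCT116 colon tumor cells with beta catenin knocked out; cells exposed to compound for 60 hours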
[3] = biological target: Glucose-6-phosphate 1-dehydrogenase (Homo sapiens, UniProt P11413); assay: inhibition of Homo sapiens G6PD, dose series – biochemical, fluorescence, selectivity assay for P. falciparum G6PD inhibitor project, dose response (AID 504792); type: functional
Glucose-6-phosphate 1-dehydrogenase, sequence (P11413 whole entry): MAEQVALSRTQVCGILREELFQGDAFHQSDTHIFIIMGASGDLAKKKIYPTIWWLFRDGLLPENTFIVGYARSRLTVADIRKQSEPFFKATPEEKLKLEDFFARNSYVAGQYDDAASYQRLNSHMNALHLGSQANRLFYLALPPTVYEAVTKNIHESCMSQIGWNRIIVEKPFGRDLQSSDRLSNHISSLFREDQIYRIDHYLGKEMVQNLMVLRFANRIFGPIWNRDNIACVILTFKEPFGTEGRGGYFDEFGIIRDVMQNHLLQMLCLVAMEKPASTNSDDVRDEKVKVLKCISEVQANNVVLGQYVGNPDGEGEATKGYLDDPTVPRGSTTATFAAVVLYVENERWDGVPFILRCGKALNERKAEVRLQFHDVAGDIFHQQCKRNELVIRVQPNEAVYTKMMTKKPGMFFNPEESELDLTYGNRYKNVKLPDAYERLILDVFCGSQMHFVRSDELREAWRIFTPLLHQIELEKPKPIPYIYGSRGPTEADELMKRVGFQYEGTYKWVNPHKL

INS1 = assay: INS-1E survival protection against cytokine death – cell-based, luminescence, retest, dose response (AID 449756); type: functional; settings: Rattus norvegicus;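 note: cell death triggered by IL-1 beta plus TNF-alpha plus IFN-gamma mixture; protective hits raise ATP signal compared with cytokine alone wells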
[4] = biological target: T1, Adenosylmethionine-8-amino-7-oxononanoate aminotransferase (Mycobacterium tuberculosis, UniProt P9WQ81); assay: Mycobacterium tuberculosis BioA enzyme inhibitor Measured in Biochemical System Using Plate Reader - 2163-02_Inhibitor_Dose_CherryPick_Activity.; type: functional, Mycobacterium tuberculosis UT205
T1 sequence (P9WQ81 whole entry): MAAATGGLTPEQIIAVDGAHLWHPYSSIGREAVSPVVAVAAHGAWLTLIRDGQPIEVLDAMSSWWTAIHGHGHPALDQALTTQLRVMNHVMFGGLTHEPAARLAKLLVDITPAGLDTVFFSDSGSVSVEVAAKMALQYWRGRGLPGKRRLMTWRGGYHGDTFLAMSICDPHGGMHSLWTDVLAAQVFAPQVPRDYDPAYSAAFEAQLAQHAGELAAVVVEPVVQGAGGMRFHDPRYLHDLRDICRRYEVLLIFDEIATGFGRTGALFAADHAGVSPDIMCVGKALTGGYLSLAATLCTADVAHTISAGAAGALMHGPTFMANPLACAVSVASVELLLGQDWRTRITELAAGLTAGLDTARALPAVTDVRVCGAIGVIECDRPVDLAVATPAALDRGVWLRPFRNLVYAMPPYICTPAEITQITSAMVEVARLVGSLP

[5] = blockers of HIV-1 envelope-mediated cell-cell fusion – cherry-pick, dose response (AID 652057); type: functional, cell-based
[6] = viability loss in CEM21 cells – cell-based, CellTiter-Glo luminescence, cherry-picked, cytotoxicity control for viral fusion inhibitor project, dose response (AID 652042); type: functional;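 note: potency for signal decrease meaning cytotoxicity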
[7] = blockers of HIV-1 ZM109 envelope-driven cell-cell fusion – HeLa effector, CEM target cells, luciferase, cherry-pick, dose response (AID 652058); type: functional, cell-based;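 note: luciferase signal from HIV-1 Env mediated cell-cell fusion of effector and target cells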
[8] = off-target signal loss in HeLa-CEM21 co-culture – HeLa F-luc CTL cells, cherry-picked, counter-screen for HIV-1 Env fusion inhibitor project, dose response (AID 652040); type: functional, cell-based;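 note: potency for signal decrease marking cytotoxic or nonspecific inhibition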
[9] = biological target: T2, Carboxy-terminal domain RNA polymerase II polypeptide A small phosphatase 1 (Homo sapiens, UniProt Q9GZU7); assay: CTDSP1 inhibitors, concentration-response, biochemical, absorbance readout, ultra-high-throughput screen actives (AID 540297); type: functional
T2 sequence (Q9GZU7 whole entry): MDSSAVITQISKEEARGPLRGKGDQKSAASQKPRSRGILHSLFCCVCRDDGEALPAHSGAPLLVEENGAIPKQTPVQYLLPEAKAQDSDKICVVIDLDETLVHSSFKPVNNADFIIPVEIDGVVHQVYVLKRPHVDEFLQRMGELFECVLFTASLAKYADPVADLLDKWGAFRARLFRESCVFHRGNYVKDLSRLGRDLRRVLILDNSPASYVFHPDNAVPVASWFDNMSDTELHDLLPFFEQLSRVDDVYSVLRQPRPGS

[10] = biological target: T3, Probable nicotinate-nucleotide adenylyltransferase (Staphylococcus aureus (strain N315), UniProt P65502); type: functional, Staphylococcus aureus subsp. aureus N315;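 for IC50 Mean: confirmatory dose-response retesting of NadD inhibitor hits first found in an ultra-high-throughput screen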
T3 sequence (P65502 whole entry): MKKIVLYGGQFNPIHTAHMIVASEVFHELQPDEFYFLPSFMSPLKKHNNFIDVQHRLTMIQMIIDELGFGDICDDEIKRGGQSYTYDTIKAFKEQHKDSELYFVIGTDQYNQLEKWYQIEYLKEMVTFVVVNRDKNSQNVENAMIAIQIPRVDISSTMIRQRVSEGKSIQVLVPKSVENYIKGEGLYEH

[11] = biological target: T3, Probable nicotinate-nucleotide adenylyltransferase; type: functional, Staphylococcus aureus subsp. aureus N315; settings: read-out: IC50_Mean
[12] = system: Streptococcus sp. 'group A'; assay: Streptococcus pyogenes SK(-)GAS viability under kanamycin – luminescence, BacTiterGlo, confirmation, counter-screen for streptokinase expression inhibitor project, dose response (AID 1900); type: functional, organism-based
Streptokinase A = biological target: T4, Streptokinase A (Streptococcus pyogenes serotype M1, UniProt P10520); assay: viability-normalized secreted streptokinase activity reduction – plasminogen activation absorbance, OD405, dose response (AID 1914); type: functional, Streptococcus pyogenes M1 GAS;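 note: secreted streptokinase activity via plasminogen activation per viability signal from cell pellet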
T4 sequence (P10520 whole entry): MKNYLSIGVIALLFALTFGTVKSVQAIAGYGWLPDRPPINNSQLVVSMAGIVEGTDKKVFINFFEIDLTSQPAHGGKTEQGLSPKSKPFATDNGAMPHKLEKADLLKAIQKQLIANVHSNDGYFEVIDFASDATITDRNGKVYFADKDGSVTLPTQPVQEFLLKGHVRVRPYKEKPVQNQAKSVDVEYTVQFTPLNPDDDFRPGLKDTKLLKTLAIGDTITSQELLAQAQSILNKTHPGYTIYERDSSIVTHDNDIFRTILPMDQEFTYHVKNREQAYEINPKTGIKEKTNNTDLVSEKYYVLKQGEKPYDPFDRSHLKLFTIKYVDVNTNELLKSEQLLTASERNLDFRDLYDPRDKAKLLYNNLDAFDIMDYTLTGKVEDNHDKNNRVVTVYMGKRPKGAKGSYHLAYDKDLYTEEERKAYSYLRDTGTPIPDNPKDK

Streptococcus = assay: GAS UMAA2166 growth inhibition – luminescence, BacTiterGlo, counter-screen for streptokinase expression inhibitor project, dose response (AID 1915); type: functional, organism-based;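 note: potency for reduction of bacterial viability or growth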
[13] = intracellular Trypanosoma cruzi inhibitors in host cells – cell-based, plate reader, cherry-pick samples, set 3, dose response (AID 651818); type: functional;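 note: compounds incubated with infected cells for about four days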
cells [14] = type: functional, cell-based
[15] = biological target: T5, Nuclear receptor subfamily 0 group B member 1 (Homo sapiens, UniProt P51843); type: functional, cell-based;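 note: HEK293T cells transfected with SF-1 and DAX-1 plus StAR promoter luciferase reporter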
T5 sequence (P51843 whole entry): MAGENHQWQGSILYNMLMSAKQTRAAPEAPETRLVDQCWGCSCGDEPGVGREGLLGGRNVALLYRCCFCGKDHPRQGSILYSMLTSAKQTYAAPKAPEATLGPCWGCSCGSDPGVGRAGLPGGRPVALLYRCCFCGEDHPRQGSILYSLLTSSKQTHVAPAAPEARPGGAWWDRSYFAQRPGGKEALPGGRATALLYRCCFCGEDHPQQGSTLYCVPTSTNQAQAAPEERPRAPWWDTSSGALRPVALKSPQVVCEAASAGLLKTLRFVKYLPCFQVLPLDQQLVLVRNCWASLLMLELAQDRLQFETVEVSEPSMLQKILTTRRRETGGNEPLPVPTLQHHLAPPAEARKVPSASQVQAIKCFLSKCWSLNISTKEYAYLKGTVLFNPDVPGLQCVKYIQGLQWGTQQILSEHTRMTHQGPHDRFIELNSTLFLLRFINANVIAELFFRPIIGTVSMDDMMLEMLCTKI

Paired box protein Pax-8 = Paired box protein Pax-8 (Homo sapiens, UniProt Q06710); assay: PAX8 transcriptional activity inhibition in RMG-I – RMG-I cells, luciferase, cherry-pick, dose response (AID 687027); type: functional, cell-based;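 note: luciferase reporter driven by Pax8 target thyroperoxidase promoter measured by SteadyGlo luminescence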
Paired box protein Pax-8, sequence (Q06710 whole entry): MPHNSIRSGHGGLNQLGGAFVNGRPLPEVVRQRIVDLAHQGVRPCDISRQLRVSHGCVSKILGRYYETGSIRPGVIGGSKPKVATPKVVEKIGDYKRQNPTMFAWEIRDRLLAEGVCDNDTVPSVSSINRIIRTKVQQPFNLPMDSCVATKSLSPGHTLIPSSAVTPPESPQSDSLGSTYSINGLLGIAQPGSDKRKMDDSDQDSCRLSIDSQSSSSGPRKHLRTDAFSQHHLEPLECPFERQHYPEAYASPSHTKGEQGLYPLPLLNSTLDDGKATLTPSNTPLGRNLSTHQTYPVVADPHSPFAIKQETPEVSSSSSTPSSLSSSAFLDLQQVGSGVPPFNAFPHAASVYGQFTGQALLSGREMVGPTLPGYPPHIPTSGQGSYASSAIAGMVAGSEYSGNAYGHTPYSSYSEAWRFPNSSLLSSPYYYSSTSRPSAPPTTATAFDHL

[16] = biological target: Nuclear receptor subfamily 5 group A member 2 (Homo sapiens, UniProt O00482); type: functional, cell-based;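 note: HEK293T cells transfected with LRH-1 and a StAR promoter luciferase reporter; potency for inhibitors that lower LRH-1 driven reporter light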
Nuclear receptor subfamily 5 group A member 2, sequence (O00482 whole entry): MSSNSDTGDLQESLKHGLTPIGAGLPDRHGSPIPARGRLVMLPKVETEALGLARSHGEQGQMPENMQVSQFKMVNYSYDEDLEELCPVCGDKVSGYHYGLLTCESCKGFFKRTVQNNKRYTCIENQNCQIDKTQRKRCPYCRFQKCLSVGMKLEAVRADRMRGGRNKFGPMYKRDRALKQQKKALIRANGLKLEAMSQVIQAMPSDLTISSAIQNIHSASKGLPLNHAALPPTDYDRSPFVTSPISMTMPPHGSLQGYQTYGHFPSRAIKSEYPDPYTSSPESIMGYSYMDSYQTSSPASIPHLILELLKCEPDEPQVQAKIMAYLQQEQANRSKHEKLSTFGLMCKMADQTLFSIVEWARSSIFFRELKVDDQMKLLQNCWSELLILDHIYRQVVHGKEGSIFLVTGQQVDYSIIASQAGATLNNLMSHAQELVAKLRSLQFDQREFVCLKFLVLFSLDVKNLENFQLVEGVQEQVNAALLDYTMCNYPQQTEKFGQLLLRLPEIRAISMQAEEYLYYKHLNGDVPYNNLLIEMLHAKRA

Steroidogenic factor 1 = Steroidogenic factor 1 (Homo sapiens, UniProt Q13285); assay: Counterscreen for inverse agonists of the liver receptor homolog-1 (LRH-1; NR5A2): Luminescence-based cell-based high throughput dose response assay to identify inverse agonists of the Steroidogenic Factor 1 Nuclear Receptor (SF1; NR5A1).; type: functional
Steroidogenic factor 1, sequence (Q13285 whole entry): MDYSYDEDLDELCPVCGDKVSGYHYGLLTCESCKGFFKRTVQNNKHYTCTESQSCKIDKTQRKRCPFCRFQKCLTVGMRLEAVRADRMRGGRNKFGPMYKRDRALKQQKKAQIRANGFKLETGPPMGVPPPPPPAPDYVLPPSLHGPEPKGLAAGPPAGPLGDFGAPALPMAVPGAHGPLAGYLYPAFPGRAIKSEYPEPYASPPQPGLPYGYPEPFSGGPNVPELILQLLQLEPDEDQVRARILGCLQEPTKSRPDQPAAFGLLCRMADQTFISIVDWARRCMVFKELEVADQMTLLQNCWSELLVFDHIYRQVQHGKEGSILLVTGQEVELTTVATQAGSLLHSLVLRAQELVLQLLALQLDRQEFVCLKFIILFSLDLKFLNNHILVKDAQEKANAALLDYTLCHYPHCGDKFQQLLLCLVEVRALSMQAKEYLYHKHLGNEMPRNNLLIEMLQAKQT

[17] = nonselective StAR promoter luciferase inhibitors – cell-based, luminescence, luciferase reporter, counter-screen for LRH-1 inverse agonist project, dose response (AID 651969); type: functional
[18] = viability of uninfected HEp-2 cells – cell-based, HTS, cytotoxicity control for RSV inhibitor project, dose response (AID 2410); type: functional; settings: human respiratory syncytial virus
cells [19] = assay: cells
[20] = activation of miR-122 Renilla sensor silencing – cell-based, Huh7 psiCHECK-miR122, Renilla luciferase, cherry-picked, dose response (AID 651956); type: functional;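 note: huh7 hepatoma cells stably carrying a psiCHECK-2 miR-122 sensor plasmid; renilla luciferase signal reporting endogenous miR-122 activity after 48 h compound exposure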

With `CCC(CO)N1C(C)=CC(=Cc2sc3ccccc3[n+]2Cc2ccccc2)C=C1C` (centres undefined) the EC50 [1] was 1.19 µM (active), the EC50 [2] was 0.775 µM (active) and the IC50 [3] was > 80 µM (inactive). For the same compound, the AC50 (INS1) was 0.613 µM (active) and the AC50 [4] was 2.73 µM (active).

In the case of `C[C@H](O)[C@@H]1C(=O)N2CCc3c([nH]c4cccc(-c5ccccc5)c34)[C@@H]2C[C@@H]1N(C)C(=O)OCc1ccccc1`, the AC50 [5] is reported as 5.22 µM (active), the AC50 [6] is reported as 32.5 µM (active) and the AC50 [7] is reported as 3.65 µM (active). The AC50 [8] was 3.94 µM (active).

For `Cc1noc(C)c1NC(=O)N(C)C[C@@H]1Oc2c(NC(=O)c3ccncc3)cccc2C(=O)N([C@H](C)CO)C[C@@H]1C`, the IC50 [9] was 7.66 µM (active), the IC50 [10] was 27.3 µM (active) and the IC50 [11] was 38.7 µM (active).

For `Cc1nn(-c2ccc(Cl)cc2)c(Cl)c1/C=N/NC(=O)c1ccc(NS(=O)(=O)c2cccs2)cc1`, the EC50 [12] was 1.53 µM (active), the EC50 (Streptokinase A) was > 150 µM (not active) and the EC50 (Streptococcus) was 5.2 µM (active). The IC50 [10] was 7.71 µM (active) and the IC50 [11] was 27.4 µM (active).

With `C[C@@H]1CN([C@H](C)CO)C(=O)Cc2cc(NS(=O)(=O)c3ccc(Cl)cc3)ccc2O[C@@H]1CN(C)S(=O)(=O)c1ccc(F)cc1` the AC50 [13] was 7.57 µM (active).

In the case of `COc1ccc(-c2cnc3c(NC=O)cc(-c4ccccc4OC)cn23)cc1OC`, the IC50 (cells [14]) is reported as > 67.6 µM (inactive), the IC50 [15] is reported as > 67.6 µM (inactive) and the AC50 (Paired box protein Pax-8) is reported as 1.55 µM (active).

For `CCCN(CC(=O)Nc1ccccc1C)CC(=O)Nc1ccc(Br)cc1F`, the IC50 [16] was 10.6 µM (inactive), the IC50 (Steroidogenic factor 1) was 1.33 µM (active) and the IC50 [17] was 35.1 µM (inactive).

For `O=S(=O)(c1cccc(Cl)c1)N1CCCC(c2nc(O)c3nnn(Cc4ccc5c(c4)OCCO5)c3n2)C1` (centres undefined), the CC50 [18] was 11.3 µM (active), the IC50 [10] was 9.91 µM (active) and the IC50 [11] was 30.5 µM (active). The IC50 (cells [19]) was 10.3 µM (active).

For `COc1ccccc1C#Cc1ccc([C@H]2[C@@H](CO)N3CCCCN(CCC(F)(F)F)C[C@H]23)cc1`, the AC50 [20] was 17.6 µM (active).
